# Measured values reported in US12029738B2, “Antiproliferative compounds and methods of use thereof” (Celgene Corporation, priority 2017, dated 2024).
# Several values for one entry are separate records, joined by “and”; a condition that tells them apart may be missing. Equal entries are not always repeated. Where two headings read alike, the source gives them in different places.
# Tests used:
# dopamine D2S receptor [1] = molecular target: T1, dopamine D2S receptor (Homo sapiens, UniProt P14416); test: Dopamine D2S receptor agonist assay (impedance, HEK-293); assay type: cell-based
# T1 construct: host or cells: HEK-293 cells (membrane homogenates)
# Description: (§1) α1 Adrenergic and Dopamine D2 Receptors. Methods: Binding and functional assays for α1 adrenergic and dopamine D2 receptors were performed by Eurofins Cerep according to their methods.
# Agonist activity. The agonism of test compounds on the dopamine D2S receptor was assessed using human receptor-transfected HEK-293 cells. Agonist activity was determined by measuring compound effect on impedance modulation. In these experiments, HEK-293 cells were incubated in duplicate at 28° C. with test article. Compound A was tested at 0.01-30 μM. […] Dopamine (3 μM) was used as an agonist control. Impedance measurements were monitored for 10 minutes after ligand addition using cellular dielectric spectroscopy. The EC50 was defined as the concentration causing a half-maximum response, compared to the control agonist (dopamine) response.
# α1B adrenergic receptor = molecular target: T2, α1B adrenergic receptor (Homo sapiens, UniProt P35368); test: α1B adrenergic receptor antagonist assay (cAMP, CHO cells); assay type: cell-based
# T2 construct: host or cells: CHO cells
# T2 sequence (P35368 1-520): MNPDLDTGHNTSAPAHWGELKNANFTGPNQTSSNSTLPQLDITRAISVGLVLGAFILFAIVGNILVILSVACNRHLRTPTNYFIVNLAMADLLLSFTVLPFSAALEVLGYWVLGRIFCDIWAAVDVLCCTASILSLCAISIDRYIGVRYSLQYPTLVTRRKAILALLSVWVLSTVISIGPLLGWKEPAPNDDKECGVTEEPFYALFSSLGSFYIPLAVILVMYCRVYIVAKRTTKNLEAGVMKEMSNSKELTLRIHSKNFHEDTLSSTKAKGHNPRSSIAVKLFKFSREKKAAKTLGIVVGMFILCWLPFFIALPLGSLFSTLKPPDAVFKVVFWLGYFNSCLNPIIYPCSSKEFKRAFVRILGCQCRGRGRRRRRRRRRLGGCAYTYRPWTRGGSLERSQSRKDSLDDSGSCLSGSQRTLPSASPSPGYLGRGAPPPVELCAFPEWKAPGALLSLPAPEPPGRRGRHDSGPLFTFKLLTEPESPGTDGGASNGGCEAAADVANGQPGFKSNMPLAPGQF
# Description: as §1
# Antagonist activity. The antagonistic effects of test compounds on the α1A and α1B adrenergic receptors were measured using human receptor-transfected Chinese hamster ovary (CHO) cells. Antagonist activity was determined by measuring compound effect on agonist (epinephrine)-induced calcium mobilization in the α1A receptor assay or cAMP levels in the α1B receptor assay. In these experiments, CHO cells were incubated in duplicate at room temperature with test article and epinephrine at 3 nM in the α1A receptor assays or at 3000 nM in the α1B receptor assay. Compound A was tested in the α1A receptor assay at 0.01-30 μM. […] Compound 1 and Compound 2 were assayed at 0.03 to 30 μM in the α1A receptor assay and 0.03 to 100 μM in the α1B receptor assay. In the α1A receptor assay, cytosolic calcium levels were measured fluorometrically using the fluorescent probe, Fluo4 Direct. Intracellular cAMP levels in the α1B adrenergic receptor assay were measured by homogenous time-resolved fluorescence (HTRF). The antagonism IC50 was defined as the concentration causing a half-maximum inhibition of control agonist response.
# dopamine D2S receptor [2] = molecular target: T1, dopamine D2S receptor; test: Dopamine D2S receptor radioligand binding (HEK-293); settings: for inhibition at 10 µM: read-out: Dopamine D2S % Inhibition (10 μM)
# Description: as §1
# Dopamine D2 Receptor. Binding at 10 μM. The binding assay evaluated the affinity of test articles for the dopamine D2 receptor in transfected human embryonic kidney (HEK)-293 cells. For determining the binding in the D2S receptor assay, test article was incubated with 0.3 nM [^3H] methylspiperone or 1 nM [^3H] 7-hydroxy-2-N,N-dipropylaminotetralin (7-OH-DPAT). [3H] Methylspiperone at 0.3 nM also was used as control ligand in the D2L binding assay. Cell membrane homogenates were incubated in duplicate at room temperature for 60 minutes with ligand in the absence or presence of test articles at 10 μM. After the incubation period, samples were filtered through glass fiber filters, the filters dried and then counted for radioactivity using a scintillation counter. Results are expressed as mean percent inhibition of control radioligand binding.
# Binding IC50. To determine the binding IC50 in the D2 receptor assays, HEK-293 were tested as described above but with varying concentrations of test article. Compound A was tested at 0.01-30 μM in the D2S radioligand binding assay. […] Compound 1 was assayed at 0.03-100 μM in both the D2S and D2L assays, while Compound 2 was tested at 0.03-100 μM in the D2S assay and 0.01-100 μM in the D2L assays. The IC50 was defined as the concentration causing a half-maximum inhibition of control specific binding.
# [3] = tested on: non-selective α1 adrenergic receptor; test: α1 adrenergic receptor radioligand binding ([3H]prazosin); settings: rat cerebral cortex; for Adrenergic α1 (non-selective) % Inhibition (10 μM): 0.25 nM [3H]prazosin; for IC50: [3H]prazosin
# Description: as §1
# α1 Adrenergic Receptor. Binding at 10 μM. The binding assay evaluated the affinity of test article for the non-selective α1 adrenergic receptor in rat cerebral cortex. Membrane homogenates of cerebral cortex were incubated in duplicate for 60 minutes at room temperature with 0.25 nM [^3H]prazosin in the absence or presence of test articles at 10 μM. After the incubation period, samples were filtered through glass fiber filters, the filters dried and then counted for radioactivity using a scintillation counter. Results are expressed as mean percent inhibition of control radioligand binding.
# Binding IC50. […] Compound A was tested at 0.01-30 μM. […] Compound 1 and Compound 2, the S-enantiomer of Compound 1, were assayed at 0.03-100 μM. Radioactivity was measured as described above. The IC50 was defined as the concentration causing a half-maximum inhibition of control specific binding.
# RPMI-8226 = test: PBMC and MM cell treatment assay (single culture vs co-culture); assay type: cell-based; settings: Homo sapiens, RPMI-8226, RPMI-8226, read-out: Immune-mediated Cell Killing IC50
# T1 sequence (P14416 1-414 isoform P14416-2): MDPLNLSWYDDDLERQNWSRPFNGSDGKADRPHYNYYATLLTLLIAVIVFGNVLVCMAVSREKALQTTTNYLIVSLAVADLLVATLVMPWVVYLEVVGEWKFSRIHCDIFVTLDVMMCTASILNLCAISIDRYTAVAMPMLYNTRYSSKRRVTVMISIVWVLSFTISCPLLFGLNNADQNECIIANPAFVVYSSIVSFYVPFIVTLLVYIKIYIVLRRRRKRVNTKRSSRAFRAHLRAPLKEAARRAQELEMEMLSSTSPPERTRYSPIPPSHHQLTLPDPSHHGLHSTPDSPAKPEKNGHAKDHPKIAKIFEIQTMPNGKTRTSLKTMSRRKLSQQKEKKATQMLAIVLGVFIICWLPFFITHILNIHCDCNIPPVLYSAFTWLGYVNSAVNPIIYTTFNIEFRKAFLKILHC
SMILES,"D2S Agonism EC50 (dopamine D2S receptor [1]; impedance, versus dopamine control)",IC50 (α1B adrenergic receptor),IC50 (dopamine D2S receptor [2]),inhibition at 10 µM (dopamine D2S receptor [2]),Adrenergic α1 (non-selective) % Inhibition (10 μM) [3],IC50 [3],EC50 (dopamine D2S receptor [1]),IC50 (RPMI-8226; Co-culture with PBMCs),IC50 (RPMI-8226; Single culture),"EC50 (dopamine D2S receptor [1]; impedance, versus dopamine control, read-out: D2S Agonism EC50)","IC50 (α1B adrenergic receptor; epinephrine 3000 nM, cAMP, read-out: Antagonism IC50 α1B)",Dopamine D2S % Inhibition (10 μM) (dopamine D2S receptor [2]; 10 μM)
"N#Cc1ccc(N2CCN(Cc3ccc(COc4cccc5c4CN(C4CCC(=O)NC4=O)C5=O)cc3)CC2)c(F)c1 (racemic) [Compound 1, 4-(4-(4-(((2-(2,6-dioxopiperidin-3-yl)-1-oxoisoindolin-4-yl)oxy)methyl)benzyl)piperazin-1-yl)-3-fluorobenzonitrile]",Negative,6900 nM,7400 nM,55%,67%,3900 nM,,,,,,
"N#Cc1ccc(N2CCN(Cc3ccc(COc4cccc5c4CN([C@H]4CCC(=O)NC4=O)C5=O)cc3)CC2)c(F)c1 [Compound 2, (S)-4-(4-(4-(((2-(2,6-dioxopiperidin-3-yl)-1-oxoisoindolin-4-yl)oxy)methyl)benzyl)piperazin-1-yl)-3-fluorobenzonitrile]",,2400 nM,~2000 nM,52%,62%,~1300 nM,> 10000 nM,0.0839 nM,13.4 nM,,,
O=C1CC[C@H](N2Cc3c(OCc4ccc(CN5CCN(c6ccc(F)cc6F)CC5)cc4)cccc3C2=O)C(=O)N1 [Compound B],,,,,98% and 100%,24 nM,,,,2700 nM and 1900 nM,78 nM,"99, % and 99^a %"
"Nc1cccc2c1C(=O)N(C1CCC(=O)NC1=O)C2=O (stereo not drawn) [Pomalidomide, pomalidomide]",,,,,,,,67.6 nM,> 10000 nM,,,
